# According to patent US20150126603A1, “TREATMENT OF POULTRY, PIGS OR FISH FOR REDUCING THE FEED CONVERSION RATIO OR INCREASING THEIR BODYWEIGHT GAIN” (TAMINCO, priority 2012, published 2015):
# Where two headings read alike, the source gives them in different places.
# Columns and labels:
# Japanese flounders = conditions: 8.9 g/kg of β-alanine in diet; cited from earlier work
# broiler chickens [1] = conditions: cited from earlier work
# carps = tested on: carps
# Method: A group of 24 carps were distributed over 12 aquaria with 2 fish each. All fish were previously housed in identical conditions, and fed the same diet as the control group in the trial. Every other aquarium was attributed to either a control diet or that control diet supplemented with 500 mg β-alanine per kg. Feeding was done at 1.5% of the body weight, during 2 feeding times/day. To increase the level of oxidative stress, the carps were kept at 27° C. (4° C. above the advised temperature).
# The change in bodyweight after the 14 day feeding experiment was measured per fish, but pooled per aquarium as the experimental unit.
# chickens = conditions: 22 mmol/kg bodyweight orally twice a day for five days; cited from earlier work
# pigs [2] = tested on: pigs
# Method: At 9 weeks of age, 48 pigs (24 gilts and 24 chirurgical castrated barrows) were divided randomly into groups of four pigs of the same gender. Each group was housed in a separate pen resulting in six pens of four gilts and six pens of four barrows. All pigs were fed the same commercial diet and for three of the six pens of gilts and three of the six pens of barrows their diet was supplemented with 500 mg β-alanine per kg (=568 mg or 6.4 mmol β-alanine per kg dry weight). Water was freely available and the animals were fed ad libitum. After 6 weeks (age of 15 weeks) all animals were euthanized by natrium-pentobarbital.
# Ross 308 chickens = tested on: Ross 308 chickens
# Method: A group of 252 Ross 308 chickens were randomly distributed over 14 pens with 18 animals each. All chickens were previously housed in identical conditions, and fed the same diet as the control group in the trial. Every other pen was attributed to either a control diet or that control diet supplemented with 500 mg β-alanine per kg (=595 mg or 6.7 mmol β-alanine per kg dry weight). Water was freely available from drinking cups, and animals were fed ad libitum. The control diet was a commercial broiler diet (Vanden Avenne, Braadkip 114 MB) with 4% corn oil added to increase the level of oxidative stress, as used in earlier studies (Kalmar et al., 2011).
# From the age of 24 days to the age of 48 days, the change in bodyweight was measured per bird, but pooled per pen as the experimental unit. At 42 days of age, one male bird per pen was euthanized by intravenous injection of sodium pentobarbital. From the breast and thigh muscle, a sample was dissected and stored airtight at −20° C. until analysis. The breast muscle sample was taken at about one third from the distal end of the breast.
# pigs [3] = conditions: cited from earlier work
# broiler chickens [4] = conditions: 0.5% of carnosine in broiler feed; cited from earlier work
# [5] = 0.5% of β-alanine in feed for 4 weeks
# [6] = 1 and 2% of β-alanine in feed for 4 weeks
# [7] = 500 mg/kg beta-alanine in diet, 14 days
# [8] = 500 mg/kg beta-alanine in diet, 14 days, 27° C.
# [9] = 500 mg/kg beta-alanine in diet, between 24 and 42 days of age
# [10] = 0.225% of β-alanine in pig diet
# [11] = β-alanine in combination with histidine
structure (smiles),measurement,setting,value
"NCCC(=O)O [Beta-alanine, β-alanine]",bodyweight gain,Japanese flounders,increased somewhat but not significantly
same,feed conversion ratio,Japanese flounders,increased significantly
same,bodyweight gain,broiler chickens [1]; [5],no significant changes
same,feed conversion ratio,broiler chickens [1]; [5],no significant changes
same,bodyweight gain,broiler chickens [1]; [6],decreased significantly
same,feed conversion ratio,broiler chickens [1]; [6],increased
same,Average feed intake,carps; [7],44.1 g
same,feed conversion ratio,carps; [7],2.7 g:g
same,Average weight gain,carps; [8],19.0 g
same,Final bodyweight,carps; [8],230.1 g
same,Initial bodyweight,"carps; baseline, 500 mg/kg group",211.1 g
same,bodyweight gain,chickens,also decreased
same,feed consumption,chickens,also decreased
same,feed conversion ratio,chickens,decreased
same,Bodyweight gain over 6 weeks,"pigs [2]; 500 mg/kg beta-alanine in diet, 9 to 15 weeks of age",25.4
same,Final bodyweight,"pigs [2]; 500 mg/kg beta-alanine in diet, 15 weeks of age",44.1 kg
same,bodyweight at slaughter vs control,pigs [2]; 500 mg/kg β-alanine in diet,tend to have a higher bodyweight at slaughter
same,bodyweight gain vs control,pigs [2]; 500 mg/kg β-alanine in diet,tended to have a higher bodyweight gain
same,overall growth of the piglets,pigs [2]; 500 mg/kg β-alanine in diet,increases the overall growth
same,death or illness during the trial,"pigs [2]; 500 mg/kg β-alanine in diet, 6 weeks",No animals died or became ill
same,Initial bodyweight,"pigs [2]; baseline at 9 weeks of age, 500 mg/kg group",18.7 kg
same,Average daily gain,Ross 308 chickens; [9],108 g
same,Final bodyweight,Ross 308 chickens; [9],2.874 kg
same,bodyweight at slaughter vs control,Ross 308 chickens; 500 mg/kg β-alanine in diet,tended to have a higher bodyweight at slaughter
same,bodyweight gain vs control,Ross 308 chickens; 500 mg/kg β-alanine in diet,tended to have a higher bodyweight gain
same,Initial bodyweight,"Ross 308 chickens; baseline at 24 days of age, 500 mg/kg group",1.362 kg
same,bodyweight gain,pigs [3]; [10],decreased somewhat
same,feed conversion ratio,pigs [3]; [10],decreased somewhat
same,bodyweight gain,pigs [3]; [11],decreased even more
same,feed conversion ratio,pigs [3]; [11],increased to become higher than the control
"NCCC(=O)N[C@@H](Cc1c[nH]cn1)C(=O)O [carnosine, β-alanyl-L-histidine]",chicken meat quantity and quality,broiler chickens [4],improve
same,feed conversion ratio,broiler chickens [4],improved but not statistically significantly
same,weight gain,broiler chickens [4],improved but not statistically significantly
